Results on 17 molecules are retold here after patent publication US20260028365A1 (BIOGEN MA INC., priority 2022, published 2026).

In general, IC50 refers to the concentration at which inhibition is half-maximal. A lower IC50 goes with greater potency.

SMILES strings stand for the structures. Like-named read-outs stand apart in the source and are kept apart here.

Assay [1] addresses JH2 domain of human Tyk2 (Homo sapiens (Human), UniProt P29597). Nature of the assay: JH2 Biochemical Assay (TR-FRET probe displacement). Type of assay: binding. (Time-resolved FRET reads energy transfer from a long-lived donor to a nearby acceptor.)
The target in assay [2] is Tyk2 (Homo sapiens (Human), UniProt P29597). Put plainly: pSTAT4 Cell Assay (MSD, NK92 cells). In kind it is cell-based.
Assay [3] deals with JAK2 (Homo sapiens (Human), UniProt O60674). Nature of the assay: pSTAT5 Cell Assay (MSD, TF1 cells). Type of assay: cell-based. In a few lines: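 Serum-starved TF1 cells were pretreated with compound for 1 h (10-point four-fold series from 10 μM), then stimulated with 30 ng/mL IL-3 for 15 min. pSTAT5 in lysates was measured by MSD immunoassay. IC50 came from a 4-parameter logistic fit.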

For assay [4], the target named is JAK1 (Homo sapiens (Human), UniProt P23458). Put plainly: pSTAT3 Cell Assay (MSD, TF1 cells). In kind it is cell-based. The essentials:
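Serum-starved TF1 cells with endogenous JAK1/STAT3 were pretreated 1 h with compound in a 10-point four-fold dilution series from 10 μM, then stimulated with 30 ng/mL IL-6 for 15 min. pSTAT3 in lysates was quantified by MSD immunoassay, and IC50 came from 4-parameter logistic fits.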

Setting [5] is: TR-FRET probe displacement, JH2 domain of human Tyk2.
The mark [6] stands for this setting: JH2 domain of human Tyk2, TR-FRET probe displacement.
Where [7] appears, read: TR-FRET probe displacement, JH2 domain.

Sequence of JAK2 (O60674 whole entry): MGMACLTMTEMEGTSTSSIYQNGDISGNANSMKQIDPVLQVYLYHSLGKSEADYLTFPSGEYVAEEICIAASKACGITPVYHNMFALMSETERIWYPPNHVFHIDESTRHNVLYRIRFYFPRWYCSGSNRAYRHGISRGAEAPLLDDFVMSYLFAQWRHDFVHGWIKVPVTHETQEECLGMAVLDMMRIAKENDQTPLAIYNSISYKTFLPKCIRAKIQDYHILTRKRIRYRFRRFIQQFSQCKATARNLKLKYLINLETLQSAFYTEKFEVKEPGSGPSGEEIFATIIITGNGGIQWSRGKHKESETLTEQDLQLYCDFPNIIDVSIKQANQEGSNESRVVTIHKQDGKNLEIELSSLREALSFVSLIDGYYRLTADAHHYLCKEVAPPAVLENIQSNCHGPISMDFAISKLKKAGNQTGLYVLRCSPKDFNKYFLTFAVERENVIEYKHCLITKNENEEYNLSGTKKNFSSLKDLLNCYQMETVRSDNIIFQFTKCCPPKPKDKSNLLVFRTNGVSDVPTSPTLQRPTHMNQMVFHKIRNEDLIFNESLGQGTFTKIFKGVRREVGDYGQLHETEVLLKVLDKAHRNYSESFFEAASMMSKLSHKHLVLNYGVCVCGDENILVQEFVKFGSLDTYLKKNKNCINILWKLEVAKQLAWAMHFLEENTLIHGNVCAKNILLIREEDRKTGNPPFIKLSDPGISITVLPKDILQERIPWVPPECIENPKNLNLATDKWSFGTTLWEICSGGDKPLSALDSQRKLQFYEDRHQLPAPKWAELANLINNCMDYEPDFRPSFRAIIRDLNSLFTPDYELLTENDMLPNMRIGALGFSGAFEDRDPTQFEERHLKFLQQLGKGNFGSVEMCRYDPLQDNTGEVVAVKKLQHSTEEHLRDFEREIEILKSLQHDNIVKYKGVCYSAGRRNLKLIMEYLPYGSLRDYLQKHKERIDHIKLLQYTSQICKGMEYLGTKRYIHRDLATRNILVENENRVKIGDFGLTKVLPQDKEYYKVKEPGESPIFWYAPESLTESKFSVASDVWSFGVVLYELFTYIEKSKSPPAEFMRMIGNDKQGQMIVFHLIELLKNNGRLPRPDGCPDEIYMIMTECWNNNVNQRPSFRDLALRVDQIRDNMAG
Sequence of Tyk2 (P29597 whole entry): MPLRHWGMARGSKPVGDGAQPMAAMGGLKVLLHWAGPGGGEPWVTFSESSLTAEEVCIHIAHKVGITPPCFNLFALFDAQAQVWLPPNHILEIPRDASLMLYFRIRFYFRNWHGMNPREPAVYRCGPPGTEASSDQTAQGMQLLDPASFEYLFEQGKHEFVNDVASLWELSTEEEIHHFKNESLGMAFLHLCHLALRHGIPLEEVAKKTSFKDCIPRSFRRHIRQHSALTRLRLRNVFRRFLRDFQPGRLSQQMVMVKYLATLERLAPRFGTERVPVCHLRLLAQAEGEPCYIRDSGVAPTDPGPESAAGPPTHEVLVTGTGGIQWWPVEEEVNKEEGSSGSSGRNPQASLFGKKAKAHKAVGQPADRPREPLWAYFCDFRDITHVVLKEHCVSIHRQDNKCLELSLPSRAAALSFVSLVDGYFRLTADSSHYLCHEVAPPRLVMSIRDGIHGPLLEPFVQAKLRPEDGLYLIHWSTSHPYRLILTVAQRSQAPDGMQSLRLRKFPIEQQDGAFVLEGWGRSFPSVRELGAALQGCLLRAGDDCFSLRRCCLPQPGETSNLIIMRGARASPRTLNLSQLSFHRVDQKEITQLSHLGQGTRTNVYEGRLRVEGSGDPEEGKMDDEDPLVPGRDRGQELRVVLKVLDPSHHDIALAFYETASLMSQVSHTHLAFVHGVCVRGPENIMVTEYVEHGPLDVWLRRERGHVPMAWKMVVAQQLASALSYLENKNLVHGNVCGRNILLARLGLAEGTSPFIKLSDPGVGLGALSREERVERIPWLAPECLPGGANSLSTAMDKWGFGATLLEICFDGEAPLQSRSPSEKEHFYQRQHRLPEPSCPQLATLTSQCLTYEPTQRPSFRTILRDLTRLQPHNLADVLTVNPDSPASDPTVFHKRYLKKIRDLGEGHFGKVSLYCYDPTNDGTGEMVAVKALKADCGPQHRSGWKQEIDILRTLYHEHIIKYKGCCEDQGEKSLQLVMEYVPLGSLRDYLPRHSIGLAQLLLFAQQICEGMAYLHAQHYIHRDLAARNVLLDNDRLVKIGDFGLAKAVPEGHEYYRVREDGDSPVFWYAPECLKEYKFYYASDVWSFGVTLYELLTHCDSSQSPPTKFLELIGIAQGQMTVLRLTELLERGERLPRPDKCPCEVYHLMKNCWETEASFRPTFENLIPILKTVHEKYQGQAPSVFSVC
Sequence of JAK1 (P23458 whole entry): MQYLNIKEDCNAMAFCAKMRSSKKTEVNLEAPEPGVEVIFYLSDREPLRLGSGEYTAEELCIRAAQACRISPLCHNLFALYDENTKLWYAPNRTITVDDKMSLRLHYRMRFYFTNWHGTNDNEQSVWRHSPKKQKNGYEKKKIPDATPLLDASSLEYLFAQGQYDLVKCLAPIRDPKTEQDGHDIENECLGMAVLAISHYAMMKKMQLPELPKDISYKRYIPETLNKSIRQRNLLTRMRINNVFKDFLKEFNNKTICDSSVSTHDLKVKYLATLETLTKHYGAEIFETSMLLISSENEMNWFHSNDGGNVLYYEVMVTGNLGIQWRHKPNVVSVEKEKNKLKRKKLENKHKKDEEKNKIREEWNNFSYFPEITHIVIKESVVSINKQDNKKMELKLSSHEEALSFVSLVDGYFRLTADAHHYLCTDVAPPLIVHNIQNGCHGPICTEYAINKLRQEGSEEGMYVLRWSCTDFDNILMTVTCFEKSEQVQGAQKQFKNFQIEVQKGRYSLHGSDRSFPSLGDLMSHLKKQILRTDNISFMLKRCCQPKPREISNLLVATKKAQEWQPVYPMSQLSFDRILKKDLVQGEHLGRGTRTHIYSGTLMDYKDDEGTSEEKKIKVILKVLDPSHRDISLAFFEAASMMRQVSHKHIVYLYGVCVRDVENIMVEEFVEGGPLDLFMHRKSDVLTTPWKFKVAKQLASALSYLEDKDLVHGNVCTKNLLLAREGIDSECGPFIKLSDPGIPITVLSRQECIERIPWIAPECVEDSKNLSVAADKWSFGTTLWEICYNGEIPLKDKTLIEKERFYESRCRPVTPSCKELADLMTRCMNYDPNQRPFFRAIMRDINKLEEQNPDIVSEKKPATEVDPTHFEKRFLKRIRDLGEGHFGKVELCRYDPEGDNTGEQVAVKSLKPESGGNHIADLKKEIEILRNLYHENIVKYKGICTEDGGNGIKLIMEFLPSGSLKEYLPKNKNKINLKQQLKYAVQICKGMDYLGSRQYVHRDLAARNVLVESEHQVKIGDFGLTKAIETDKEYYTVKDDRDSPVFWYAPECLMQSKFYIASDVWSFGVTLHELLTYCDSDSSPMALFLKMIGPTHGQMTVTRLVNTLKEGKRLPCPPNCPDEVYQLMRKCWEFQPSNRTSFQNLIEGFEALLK
Sequence of JH2 domain of human Tyk2 (P29597 575-876): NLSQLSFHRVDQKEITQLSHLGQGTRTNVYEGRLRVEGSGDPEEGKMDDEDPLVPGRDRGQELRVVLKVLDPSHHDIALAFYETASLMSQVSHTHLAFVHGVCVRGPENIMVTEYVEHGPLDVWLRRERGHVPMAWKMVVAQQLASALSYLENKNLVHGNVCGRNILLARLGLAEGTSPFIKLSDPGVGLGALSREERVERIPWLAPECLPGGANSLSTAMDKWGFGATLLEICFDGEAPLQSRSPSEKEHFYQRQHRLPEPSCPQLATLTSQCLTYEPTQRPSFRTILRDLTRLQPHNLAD

As to `CCc1cc(Nc2cc(NC(C)=O)ncc2OCCOC)nc(C(C)(F)F)n1` [Example 20, N-(4-((2-(1,1-difluoroethyl)-6-ethylpyrimidin-4-yl)amino)-5-(2-methoxyethoxy)pyridin-2-yl)acetamide], the IC50 is at most 10 nM in assay [1] (setting [5]); at most 10 nM in assay [2] (MSD); at least 1000 nM in assay [3] (IL-3 stimulation, MSD); at least 1000 nM in assay [4] (IL-6 stimulation, MSD).

In the case of `COCCOc1cnc(NC(C)=O)cc1Nc1cc(C)nc(C(C)(C)F)n1` [Example 406, N-(4-((2-(2-fluoropropan-2-yl)-6-methylpyrimidin-4-yl)amino)-5-(2-methoxyethoxy)pyridin-2-yl)acetamide], the IC50 is at most 10 nM in assay [1] (setting [6]); at most 10 nM in assay [2] (MSD); at least 1000 nM in assay [3] (IL-3 stimulated, MSD); at least 1000 nM in assay [4] (IL-6 stimulated, MSD).

In the case of `CC(=O)Nc1cc(Nc2cc(OC3CC3)nc(C(C)(F)F)n2)c(OC[C@@H]2COCCO2)cn1` (single isomer, unassigned) [Example 453, (S)-N-(5-((1,4-dioxan-2-yl)methoxy)-4-((6-cyclopropoxy-2-(1,1-difluoroethyl)pyrimidin-4-yl)amino)pyridin-2-yl)acetamide or (R)-N-(5-((1,4-dioxan-2-yl)methoxy)-4-((6-cyclopropoxy-2-(1,1-difluoroethyl)pyrimidin-4-yl)amino)pyridin-2-yl)acetamide], the IC50 in assay [1] (setting [6]) was at most 10 nM; in assay [2] (MSD) it was at most 10 nM; in assay [3] (IL-3 stimulated, MSD) it was at least 1000 nM; in assay [4] (IL-6 stimulated, MSD) it was at least 1000 nM.

With `CC(=O)Nc1cc(Nc2cc(C)nc(C(C)(F)F)n2)c(-c2cnc(F)cn2)cn1` [Example 598, N-(4-((2-(1,1-difluoroethyl)-6-methylpyrimidin-4-yl)amino)-5-(5-fluoropyrazin-2-yl)pyridin-2-yl)acetamide], the 50% inhibitory concentration (IC50) in assay [1] (setting [6]) is at most 10 nM; in assay [2] (MSD) it was 10 to 100 nM; in assay [3] (IL-3 stimulated, MSD), at least 1000 nM; in assay [4] (IL-6 stimulated, MSD) it was at least 1000 nM.

As for `[2H]C([2H])([2H])C([2H])([2H])Oc1cnc(NC(C)=O)cc1Nc1cc(NC2CCC2)nc(C(C)(F)F)n1` [Example 488, N-(4-((6-(cyclobutylamino)-2-(1,1-difluoroethyl)pyrimidin-4-yl)amino)-5-(ethoxy-d5)pyridin-2-yl)acetamide], the IC50 was at most 10 nM in assay [1] (setting [6]); at most 10 nM in assay [2] (MSD); at least 1000 nM in assay [3] (IL-3 stimulated, MSD); at least 1000 nM in assay [4] (IL-6 stimulated, MSD).

In the case of `CC(=O)Nc1cc(Nc2cc(C)nc(C(C)(F)F)n2)c(-c2cnccn2)cn1` [Example 620, N-(4-((2-(1,1-difluoroethyl)-6-methylpyrimidin-4-yl)amino)-5-(pyrazin-2-yl)pyridin-2-yl)acetamide], the IC50 in assay [1] (setting [6]) is at most 10 nM; in assay [2] (MSD), 10 to 100 nM; in assay [3] (IL-3 stimulated, MSD), at least 1000 nM; in assay [4] (IL-6 stimulated, MSD) it was at least 1000 nM.

Turning to `CC(=O)Nc1cc(Nc2cc(C)nc(C(C)(C)F)n2)c(-c2cc(C)ncn2)cn1` [Example 200, N-(4-((2-(2-fluoropropan-2-yl)-6-methylpyrimidin-4-yl)amino)-5-(6-methylpyrimidin-4-yl)pyridin-2-yl)acetamide], the IC50 in assay [1] (setting [5]) is at most 10 nM; in assay [2] (MSD), 10 to 100 nM; in assay [3] (IL-3 stimulation, MSD), at least 1000 nM; in assay [4] (IL-6 stimulation, MSD), at least 1000 nM.

For `CC(=O)Nc1cc(Nc2cc(C)nc(C(C)(F)F)n2)c(-c2cc3n(n2)CCN(C)C3)cn1` [Example 226, N-(4-((2-(1,1-difluoroethyl)-6-methylpyrimidin-4-yl)amino)-5-(5-methyl-4,5,6,7-tetrahydropyrazolo[1,5-a]pyrazin-2-yl)pyridin-2-yl)acetamide], the IC50 was at most 10 nM in assay [1] (setting [5]); at most 10 nM in assay [2] (MSD); at least 1000 nM in assay [3] (IL-3 stimulation, MSD); 100 to 1000 nM in assay [4] (IL-6 stimulation, MSD).

For the molecule `COCc1cnc(-c2cnc(NC(C)=O)cc2Nc2cc(C)nc(C(C)(F)F)n2)cn1` [Example 834, N-(4-((2-(1,1-difluoroethyl)-6-methylpyrimidin-4-yl)amino)-5-(5-(methoxymethyl)pyrazin-2-yl)pyridin-2-yl)acetamide], the IC50 in assay [1] (setting [7]) is at most 10 nM; in assay [2], at most 10 nM; in assay [3] (IL-3 stimulated), at least 1000 nM; in assay [4] (IL-6 stimulated), at least 1000 nM.

On to `COCc1ccc(-c2cnc(NC(C)=O)cc2Nc2ccnc(C(C)(F)F)n2)nc1` [Example 851, N-(4′-((2-(1,1-difluoroethyl)pyrimidin-4-yl)amino)-5-(methoxymethyl)-[2,3′-bipyridin]-6′-yl)acetamide], for which the IC50 in assay [1] (setting [7]) was at most 10 nM; in assay [2], at most 10 nM; in assay [3] (IL-3 stimulated), at least 1000 nM; in assay [4] (IL-6 stimulated), at least 1000 nM.

With `COCCOc1cc(Nc2cc(NC(C)=O)ncc2OC)nc(C(C)(F)F)n1` [Example 37, N-(4-((2-(1,1-difluoroethyl)-6-(2-methoxyethoxy)pyrimidin-4-yl)amino)-5-methoxypyridin-2-yl)acetamide], the IC50 is at most 10 nM in assay [1] (setting [5]); 100 to 1000 nM in assay [2] (MSD); at least 1000 nM in assay [3] (IL-3 stimulation, MSD); at least 1000 nM in assay [4] (IL-6 stimulation, MSD).

In the case of `CC(=O)Nc1cc(Nc2cc(C)nc(C(C)(F)F)n2)c(-c2cocn2)cn1` [Example 596, N-(4-((2-(1,1-difluoroethyl)-6-methylpyrimidin-4-yl)amino)-5-(oxazol-4-yl)pyridin-2-yl)acetamide], the IC50 is at most 10 nM in assay [1] (setting [6]); at most 10 nM in assay [2] (MSD); at least 1000 nM in assay [3] (IL-3 stimulated, MSD); at least 1000 nM in assay [4] (IL-6 stimulated, MSD).

`COCCOc1cnc(NC(C)=O)cc1Nc1cc(C(C)C)nc(C(C)(F)F)n1` [Example 300, N-(4-((2-(1,1-difluoroethyl)-6-isopropylpyrimidin-4-yl)amino)-5-(2-methoxyethoxy)pyridin-2-yl)acetamide]: the IC50 in assay [1] (setting [5]) is at most 10 nM; in assay [2] (MSD), at most 10 nM; in assay [3] (IL-3 stimulation, MSD) it was at least 1000 nM; in assay [4] (IL-6 stimulation, MSD) it was at least 1000 nM.

Turning to `CC(=O)Nc1cc(Nc2cc(C)nc(C(C)(F)F)n2)c(-c2nc3c(s2)CN(C)CC3)cn1` [Example 238, N-(4-((2-(1,1-difluoroethyl)-6-methylpyrimidin-4-yl)amino)-5-(5-methyl-4,5,6,7-tetrahydrothiazolo[5,4-c]pyridin-2-yl)pyridin-2-yl)acetamide], the IC50 is at most 10 nM in assay [1] (setting [5]); at most 10 nM in assay [2] (MSD); at least 1000 nM in assay [3] (IL-3 stimulation, MSD); at least 1000 nM in assay [4] (IL-6 stimulation, MSD).

For the molecule `CCOc1cnc(NC(C)=O)cc1Nc1cc(C2CC2)nc(C(C)(F)F)n1` [Example 13, N-(4-((6-cyclopropyl-2-(1,1-difluoroethyl)pyrimidin-4-yl)amino)-5-ethoxypyridin-2-yl)acetamide], the IC50 in assay [1] (setting [5]) was at most 10 nM; in assay [2] (MSD), 10 to 100 nM; in assay [3] (IL-3 stimulation, MSD), at least 1000 nM; in assay [4] (IL-6 stimulation, MSD), at least 1000 nM.

With `[2H]C([2H])([2H])n1cc(-c2cc(Nc3cc(NC(C)=O)ncc3OCC)nc(C(C)(F)F)n2)cn1` [Example 314, N-(4-((2-(1,1-difluoroethyl)-6-(1-(methyl-d3)-1H-pyrazol-4-yl)pyrimidin-4-yl)amino)-5-ethoxypyridin-2-yl)acetamide], the IC50 was at most 10 nM in assay [1] (setting [5]); at most 10 nM in assay [2] (MSD); at least 1000 nM in assay [3] (IL-3 stimulation, MSD); at least 1000 nM in assay [4] (IL-6 stimulation, MSD).

Take `CCOc1cnc(NC(C)=O)cc1Nc1cc(-c2cnn(CC)c2)nc(C(C)(F)F)n1` [Example 311, N-(4-((2-(1,1-difluoroethyl)-6-(1-ethyl-1H-pyrazol-4-yl)pyrimidin-4-yl)amino)-5-ethoxypyridin-2-yl)acetamide]: the IC50 is at most 10 nM in assay [1] (setting [5]); 10 to 100 nM in assay [2] (MSD); at least 1000 nM in assay [3] (IL-3 stimulation, MSD); at least 1000 nM in assay [4] (IL-6 stimulation, MSD).
